The source of these data is PubChem BioAssay (NCI).

Experiment in all cases: DTP human tumour cell line panel, 48 h
The test system of assay [1] is T-47D breast.
For assay [2], the system named is LOX IMVI melanoma.
Assay [3] concerns 786-0 renal.
Assay [4] relates to SK-OV-3 ovarian.
Assay [5] relates to SR leukemia.
For assay [6], the system named is OVCAR-3 ovarian.
In assay [7] the test system is PC-3 prostate.
Assay [8] deals with UO-31 renal.
For assay [9], the system named is MCF7 breast.
For assay [10], the system named is CCRF-CEM leukemia.
The test system of assay [11] is CAKI-1 renal.
Assay [12] concerns TK-10 renal.
Assay [13] concerns SF-268 CNS.

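Grown in 96-well plates, cells were treated for 48 hours with each compound at five concentrations. Insufficient inhibition: endpoint recorded as highest concentration tested. At the TGI there is no net growth.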

As to `CCC(=O)C(CCN1CCC2(CCCc3ccccc32)CC1)(c1ccccc1)c1ccccc1`, the TGI – broadly, the concentration giving total growth inhibition – in assay [1] amounted to 10.2 µM; in [2], 2.16 µM; in assay [3] it was 6.09 µM; in assay [4], 18.2 µM; in assay [5], 5.9 µM; in assay [6] it was 6.67 µM. The TGI in assay [7] is 8.87 µM; in [8], 8.66 µM; in [9], 10.9 µM; in assay [10], greater than 100 µM; in [11], 14.5 µM; in assay [12], 11 µM. The TGI in assay [13] worked out at 16.4 µM.

For the compound `CC1=NC(=Cc2ccccc2O)C(=O)N1n1c(-c2ccccc2)nc2ccccc2c1=O`, the total growth inhibition concentration (TGI) in [1], in assay [2], in assay [3], in [4], in assay [5] and in assay [6] was greater than 100 µM in each case. Further, the TGI in [7] is greater than 100 µM; in assay [8] it was greater than 100 µM; in [9], 74.2 µM; in [10], greater than 100 µM; in assay [12], greater than 100 µM; in [13] it was greater than 100 µM.

For the compound `CCOC(=O)N1N=C(/C(C)=N/OC)C(C)S1=O` (stereo not given), the TGI in assay [1], in assay [3], in assay [4], in assay [5], in [6] and in assay [7] was greater than 100 µM throughout. In addition, the TGI in assay [8], in [9], in [10], in [11], in assay [12] and in assay [13] was greater than 100 µM throughout.

Take `NC1CC(=O)c2c1sc(Cl)c2Cl` (stereo not given): the TGI in assay [1], in assay [3], in assay [4], in assay [5], in [6] and in assay [7] was greater than 100 µM in each case. For the same compound, the TGI in assay [8], in [9], in [10], in assay [11], in assay [12] and in assay [13] was greater than 100 µM throughout.

Take `CCCCc1ccc(-n2sc3ncc(C)cc3c2=O)cc1`: the TGI in assay [1] was 63.1 µM; in assay [2], 72.3 µM; in [3], greater than 100 µM; in assay [4], greater than 100 µM; in assay [5] it was greater than 100 µM; in assay [6], 47.8 µM. Besides, the TGI is 28.2 µM in assay [7]; 20.2 µM in assay [8]; 34.3 µM in assay [9]; 50.5 µM in assay [10]; greater than 100 µM in assay [12].

For the compound `C[N+]12C=CC=C1C(N1CCCC1)c1scc(-c3ccccc3)c12` (stereo not given), the concentration for total growth inhibition (TGI) in assay [1] was 78.4 µM; in [2], greater than 100 µM; in [3], greater than 100 µM; in assay [4], greater than 100 µM; in assay [5], 37.4 µM; in assay [6] it was 87.8 µM. Further, the TGI was 89.9 µM in [7]; greater than 100 µM in assay [8]; 71.7 µM in assay [9]; greater than 100 µM in [10]; greater than 100 µM in assay [11]; greater than 100 µM in assay [13].

Turning to `CCOC(=O)C1(F)S(=O)(=O)OCCOS1(=O)=O`, the TGI in assay [1], in assay [2], in assay [3], in [4], in assay [5] and in [6] was greater than 100 µM in each case. Further, the TGI in assay [7], in assay [8], in assay [9], in assay [11], in assay [12] and in assay [13] was greater than 100 µM throughout.

Regarding `N#Cc1nc(-c2ccco2)oc1N`, the TGI in [1], in [2], in assay [3], in [4], in assay [5] and in assay [7] was greater than 10 µM in each case. The TGI in assay [8], in assay [9], in [10], in assay [11], in [12] and in assay [13] was greater than 10 µM each time.

For the compound `N#Cc1c2c(c(N)oc1=O)C(c1ccccc1)CC(=O)N2` (stereo not given), the TGI in assay [1], in assay [2], in [3], in assay [4], in assay [6] and in [7] was greater than 100 µM each time. Further, the TGI in [8], in [9], in assay [10], in assay [11], in [12] and in assay [13] was greater than 100 µM throughout.

Turning to `O=C1CSC2(CC(/C=C/c3cccc([N+](=O)[O-])c3)=NN2c2cccc(S(=O)(=O)O)c2)N1c1nc2ccccc2s1` (stereo not given), the TGI in assay [1] came out at 73.8 µM; in assay [2] it was 29.1 µM; in assay [3] it was 31.8 µM; in assay [5], 48.3 µM; in [7], 51 µM; in [8], 34.3 µM. For the same compound, the TGI in assay [9] was 37.2 µM; in assay [10], 48.3 µM; in assay [11], greater than 100 µM; in [12], 39.8 µM; in assay [13] it was greater than 100 µM.

`NC(=O)C(=CNC(=S)Nc1ccccc1)C(N)=O`: the TGI in assay [1], in assay [2], in assay [3], in assay [4], in [5] and in [6] was greater than 100 µM throughout. The TGI in assay [7], in assay [9], in assay [10], in assay [11] and in assay [13] was greater than 100 µM throughout.
